Drawing on patent publication US9096518B2, “Substituted hydroxamic acids and uses thereof” (Millennium Pharmaceuticals, Inc., priority 2009, dated 2015), this text covers IC50 for 14 compounds.

Molecules are shown by their SMILES. Where only a bound is given, the exact number is not on record here.

The experiment deals with T1, purified human HDAC6 (Homo sapiens, UniProt Q9UBN7).
T1 construct: purchased BPS Bioscience 5006
T1 sequence (Q9UBN7 1-1215): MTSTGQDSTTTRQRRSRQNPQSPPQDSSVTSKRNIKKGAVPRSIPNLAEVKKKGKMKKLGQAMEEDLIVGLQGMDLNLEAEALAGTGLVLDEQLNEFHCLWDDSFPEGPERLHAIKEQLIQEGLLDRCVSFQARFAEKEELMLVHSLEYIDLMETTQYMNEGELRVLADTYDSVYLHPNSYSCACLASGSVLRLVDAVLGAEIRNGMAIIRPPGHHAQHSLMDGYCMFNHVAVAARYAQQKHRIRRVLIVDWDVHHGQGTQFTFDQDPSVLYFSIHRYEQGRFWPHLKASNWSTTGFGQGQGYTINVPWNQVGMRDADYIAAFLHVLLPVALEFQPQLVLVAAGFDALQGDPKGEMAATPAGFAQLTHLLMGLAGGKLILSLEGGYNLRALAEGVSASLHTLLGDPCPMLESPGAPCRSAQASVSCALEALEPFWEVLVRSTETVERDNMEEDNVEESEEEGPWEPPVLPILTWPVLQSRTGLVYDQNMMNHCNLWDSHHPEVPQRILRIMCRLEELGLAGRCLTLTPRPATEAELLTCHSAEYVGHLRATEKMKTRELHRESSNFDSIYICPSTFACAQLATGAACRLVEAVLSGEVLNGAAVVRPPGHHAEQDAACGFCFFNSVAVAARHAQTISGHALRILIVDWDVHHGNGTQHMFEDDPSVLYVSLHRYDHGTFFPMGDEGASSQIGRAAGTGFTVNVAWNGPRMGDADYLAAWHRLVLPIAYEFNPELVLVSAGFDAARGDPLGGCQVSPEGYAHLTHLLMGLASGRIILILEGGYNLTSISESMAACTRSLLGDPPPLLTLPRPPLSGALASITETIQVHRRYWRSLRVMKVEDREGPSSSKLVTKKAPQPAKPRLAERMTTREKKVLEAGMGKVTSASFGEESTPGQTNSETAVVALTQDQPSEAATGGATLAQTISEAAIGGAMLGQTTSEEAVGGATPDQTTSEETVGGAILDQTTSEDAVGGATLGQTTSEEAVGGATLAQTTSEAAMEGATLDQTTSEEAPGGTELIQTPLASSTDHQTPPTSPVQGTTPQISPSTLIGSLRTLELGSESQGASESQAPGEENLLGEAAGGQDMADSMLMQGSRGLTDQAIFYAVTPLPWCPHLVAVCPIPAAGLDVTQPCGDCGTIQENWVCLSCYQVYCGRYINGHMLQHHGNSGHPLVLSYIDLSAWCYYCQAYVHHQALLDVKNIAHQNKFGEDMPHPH
Description: HDAC6 Enzyme Assay. Type of experiment: biochemical. An outline of the steps:
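Purified human HDAC6 incubated 1 h at 30 °C with Ac-Arg-Gly-Lys(Ac)-AMC peptide and compound; reaction stopped with trichostatin A, then trypsin releases AMC, read by fluorescence (Ex 340/Em 460 nm). IC50 from concentration-response curves relative to DMSO controls.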

`O=C(NO)c1ccc2c(c1)CCCN(C(=O)C1CCCCC1)C2` [Compound 247, 2-(cyclohexylcarbonyl)-N-hydroxy-2,3,4,5-tetrahydro-1H-2-benzazepine-7-carboxamide]: the IC50 (as a rule, the concentration that gives 50% inhibition) fell in the range of 100 to 500 nM. Turning to `O=C(NO)c1ccc2c(c1)CCN(C(=O)C13CC4CC(CC(O)(C4)C1)C3)C2` [Compound 248, N-hydroxy-2-[(3-hydroxy-1-adamantyl)carbonyl]-1,2,3,4-tetrahydroisoquinoline-6-carboxamide], the IC50 is less than 50 nM. `O=C(NO)c1ccc2c(c1)CCCN(C(=O)c1cc3ccccc3o1)C2` [Compound 250, 2-(1-benzofuran-2-ylcarbonyl)-N-hydroxy-2,3,4,5-tetrahydro-1H-2-benzazepine-7-carboxamide] returned an IC50 of less than 50 nM.

Take `O=C(NO)c1ccc2c(c1)CCCN(C(=O)Cc1csc3ccc(Cl)cc13)C2` [Compound 251, 2-[(5-chloro-1-benzothien-3-yl)acetyl]-N-hydroxy-2,3,4,5-tetrahydro-1H-2-benzazepine-7-carboxamide]: the IC50 was in the range of 100 to 500 nM. Next, `O=C(NO)c1ccc2c(c1)CCCN(C(=O)c1ccc3occc3c1)C2` [Compound 252, 2-(1-benzofuran-5-ylcarbonyl)-N-hydroxy-2,3,4,5-tetrahydro-1H-2-benzazepine-7-carboxamide]: 100 to 500 nM; `Cc1ccc2[nH]c(C(=O)N3CCCc4cc(C(=O)NO)ccc4C3)cc2c1` [Compound 253, N-hydroxy-2-[(5-methyl-1H-indol-2-yl)carbonyl]-2,3,4,5-tetrahydro-1H-2-benzazepine-7-carboxamide]: less than 50 nM. For `CC(=O)N/C(=C\c1ccccc1)C(=O)N1CCCc2cc(C(=O)NO)ccc2C1` [Compound 254, 2-[(2Z)-2-(acetylamino)-3-phenylprop-2-enoyl]-N-hydroxy-2,3,4,5-tetrahydro-1H-2-benzazepine-7-carboxamide], the IC50 is 100 to 500 nM. Next, `O=C(NO)c1ccc2c(c1)CCCN(C(=O)c1cnc3ccccc3c1)C2` [Compound 255, N-hydroxy-2-(quinolin-3-ylcarbonyl)-2,3,4,5-tetrahydro-1H-2-benzazepine-7-carboxamide]: 100 to 500 nM. On to `CC(=O)Nc1cc(NC(C)=O)cc(C(=O)N2CCCc3cc(C(=O)NO)ccc3C2)c1` [Compound 256, 2-[3,5-bis(acetylamino)benzoyl]-N-hydroxy-2,3,4,5-tetrahydro-1H-2-benzazepine-7-carboxamide], for which the IC50 was 100 to 500 nM. In turn, `O=C(NO)c1ccc2c(c1)CCCN(C(=O)c1cc3cc(Cl)ccc3o1)C2` [Compound 257, 2-[(5-chloro-1-benzofuran-2-yl)carbonyl]-N-hydroxy-2,3,4,5-tetrahydro-1H-2-benzazepine-7-carboxamide] returned an IC50 of 50 to 100 nM.

In the case of `O=C(NO)c1ccc2c(c1)CCCN(C(=O)c1csc3ccccc13)C2` [Compound 258, 2-(1-benzothien-3-ylcarbonyl)-N-hydroxy-2,3,4,5-tetrahydro-1H-2-benzazepine-7-carboxamide], the IC50 lay in the range of 100 to 500 nM. `Cc1cc(C)c(C(=O)N2CCCc3cc(C(=O)NO)ccc3C2)c(C)c1` [Compound 259] had an IC50 of more than 500 nM.

Regarding `O=C(NO)c1ccc2c(c1)CCCN(C(=O)c1cccs1)C2` [Compound 260, N-hydroxy-2-(2-thienylcarbonyl)-2,3,4,5-tetrahydro-1H-2-benzazepine-7-carboxamide], the IC50 lay in the range of 100 to 500 nM. Consider `O=C(NO)c1ccc2c(c1)CCCN(C(=O)c1cc(C(F)(F)F)cc(C(F)(F)F)c1)C2` [Compound 261], for which the IC50 was more than 500 nM.
